{"source": "paper PMC8271877", "about": "“Identifying a Deferiprone–Resveratrol Hybrid as an Effective Lipophilic Anti-Plasmodial Agent” (Molecules, 2021)", "key": {"[1]": {"parameters": "method as in PMID 28061347", "settings": "read-out: IC50, antioxidant activity; cited from earlier work"}, "P. falciparum [2]": {"system": "P. falciparum", "settings": "read-out: IC50 against P. falciparum; cited from earlier work"}, "Aβ1–42": {"system": "Aβ1–42", "parameters": "method as in PMID 28061347", "settings": "read-out: IC50, Cu2+/Fe3+-induced Aβ1–42 aggregation; cited from earlier work"}, "P. falciparum [3]": {"system": "P. falciparum", "parameters": "method as in PMID 26424148", "settings": "read-out: IC50, inhibition of P. falciparum growth; cited from earlier work"}, "[4]": {"parameters": "method as in PMID 26424148", "settings": "cited from earlier work"}, "[5]": {"assay": "Partition coefficient (Po/w), 1-octanol/water system", "settings": "mean ± SD of three repetitions"}, "P. falciparum [6]": {"system": "P. falciparum", "parameters": "method as in PMID 23266185", "settings": "read-out: IC50 against P. falciparum; cited from earlier work"}, "[7]": {"system": "labile iron pools in P. falciparum-infected red blood cells (PRBCs)", "assay": "Labile iron pool (LIP) in P. falciparum-infected RBC, calcein quenching, flow cytometry", "assay_type": "cell-based, Plasmodium falciparum", "settings": "for effect on MFI values of PRBCs (LIP content): 25–200 µM, calcein fluorescence, higher MFI = less LIP"}, "[8]": {"system": "P. falciparum (K1 strain)", "assay": "Drug sensitivity test (SYBR Green I), P. falciparum K1 strain", "assay_type": "cell-based, Plasmodium falciparum"}, "[9]": {"system": "P. falciparum (3D7 strain)", "assay": "Drug sensitivity test (SYBR Green I), P. falciparum 3D7 strain", "assay_type": "cell-based, Plasmodium falciparum", "settings": "for IC50: read-out: Absolute IC50 Value, P. falciparum (3D7 Strain)"}, "[10]": {"parameters": "method as in PMID 32208614", "settings": "cited from earlier work"}, "[11]": {"parameters": "method as in PMID 28061347", "settings": "metal-chelating activity; cited from earlier work"}, "[12]": {"settings": "cited from earlier work"}, "normal cell line": {"system": "normal cell line", "settings": "read-out: IC50, normal cell line; cited from earlier work"}, "healthy human PBMCs": {"system": "healthy human PBMCs", "assay": "MTT toxicity study in peripheral blood mononuclear cells"}, "[13]": {"settings": "Plasmodium falciparum, K1, 48 h, read-out: Absolute IC50 Value, P. falciparum (K1 Strain), PYR-resistant K1, 48 h, monotherapy"}, "[14]": {"settings": "Plasmodium falciparum, 3D7, 48 h"}}, "note": "Entries after “also recorded” stand apart in the source; their conditions may differ. Read-outs that look alike come from different tables or passages of the source.", "data": [{"smiles": "Cc1c(C)c2c(c(C)c1O)CCC(C)(C(=O)O)O2", "note": "(stereo not shown) [Trolox]", "values": [{"measurement": "IC50", "setting": "[1]", "result": 3.89, "unit": "µM"}]}, {"smiles": "CC(=O)N(O)CCCCCNC(=O)CCC(=O)N(O)CCCCCNC(=O)CCC(=O)N(O)CCCCCN", "note": "[DFO, desferrioxamine]", "values": [{"measurement": "IC50", "setting": "P. falciparum [2]", "result": 30, "unit": "µM"}]}, {"smiles": "COCCOCCOCCOc1cccc(C2=N[C@@](C)(C(=O)O)CS2)c1O", "note": "[DADFT-PE, (S)3″-(HO)-desazadesferrithiocin-polyether]", "values": [{"measurement": "IC50", "setting": "P. falciparum [2]", "result": 6, "unit": "µM"}]}, {"smiles": "COc1cc(/C=C/C(=O)CC(=O)/C=C/c2ccc(O)c(OC)c2)ccc1O", "note": "[curcumin]", "values": [{"measurement": "IC50", "setting": "Aβ1–42", "result": 18.7, "unit": "µM"}]}, {"smiles": "CC(=O)NCCCCCCn1ccc(=O)c(O)c1C", "note": "[CM1, 1-(N-acetyl-6-aminohexyl)-3-hydroxy-2-methylpyridin-4-one]", "values": [{"measurement": "IC50", "setting": "P. falciparum [3]", "result": 35.1, "unit": "µM"}, {"measurement": "Kpart", "setting": "[4]", "result": 0.53}]}, {"smiles": "Cc1c(O)c(=O)ccn1C", "note": "[DFP, 1,2-dimethyl-3-hydroxypyridin-4-one]", "values": [{"measurement": "Po/w Values (partition coefficient)", "setting": "[5]", "result": "0.18 ± 0.06"}, {"measurement": "IC50", "setting": "P. falciparum [6]", "result": 67, "unit": "µM"}, {"measurement": "effect on MFI values of PRBCs (LIP content)", "setting": "[7]", "result": "significantly increased the MFI values"}, {"measurement": "IC50", "setting": "[8]; [13]", "result": 42, "unit": "µM"}, {"measurement": "IC50", "setting": "[9]; [14]", "result": 47.7, "unit": "µM"}, {"measurement": "IC50", "setting": "P. falciparum [3]", "result": 58.2, "unit": "µM"}, {"measurement": "Kpart", "setting": "[4]", "result": 0.17}, {"measurement": "iron-mobilizing efficacy in rats", "setting": "[10]", "result": 11.8, "unit": "%"}, {"measurement": "pFe(III)", "setting": "[11]", "result": 20.6}, {"measurement": "log Po/w values for free ligands", "setting": "[12]", "result": "−0.77"}, {"measurement": "log Po/w values for [Fe-L3]", "setting": "[12]; iron complex", "result": "−2.6"}, {"measurement": "IC50", "setting": "P. falciparum [2]", "result": 15, "unit": "µM"}, {"measurement": "IC50", "setting": "normal cell line", "result": "> 200", "unit": "µM"}]}, {"smiles": "CCc1nc(N)nc(N)c1-c1ccc(Cl)cc1", "note": "[PYR, pyrimethamine]", "values": [{"measurement": "IC50", "setting": "[8]; PYR-resistant K1, 48 h, monotherapy, read-out: Absolute IC50 Value, P. falciparum (K1 Strain)", "result": 106, "unit": "µM"}, {"measurement": "IC50", "setting": "[8]; Plasmodium falciparum, K1, 48 h, PYR-resistant K1, 48 h, monotherapy, read-out: Absolute IC50 Value, P. falciparum (K1 Strain)", "result": 106, "unit": "µM"}, {"measurement": "IC50", "setting": "[9]; PYR-sensitive wild-type 3D7, 48 h, monotherapy", "result": 0.05, "unit": "µM"}, {"measurement": "IC50", "setting": "[9]; Plasmodium falciparum, 3D7, 48 h, PYR-sensitive wild-type 3D7, 48 h, monotherapy", "result": 0.046, "unit": "µM"}]}, {"smiles": "Oc1ccc(/C=C/c2cc(O)cc(O)c2)cc1", "note": "[RVT, 3,5,4′-trihydroxy-trans-stilbene]", "values": [{"measurement": "IC50", "setting": "Aβ1–42", "result": 11.9, "unit": "µM"}]}, {"smiles": "Cn1cc(O)c(=O)cc1C=Cc1cc(O)cc(O)c1", "note": "[DFP-RVT, 2-(3,5-dihydroxystyryl)-5-hydroxy-1-methylpyridin-4(1H)-one]", "values": [{"measurement": "effect on MFI values of PRBCs (LIP content)", "setting": "[7]", "result": "significantly increased the MFI values"}, {"measurement": "reduction in LIP levels in PRBCs compared with DFP (∆MFI)", "setting": "[7]; equal concentrations", "result": "more effective than conventional DFP at equal concentrations"}, {"measurement": "IC50", "setting": "Aβ1–42", "result": 10.7, "unit": "µM"}, {"measurement": "IC50", "setting": "[1]", "result": 1.73, "unit": "µM"}, {"measurement": "anti-malarial activity of combined treatment with PYR, K1 strain", "setting": "[8]; DFP-RVT (0–15 µM) with 75 µM PYR, 48 h", "result": "significantly enhanced the anti-malarial activity; also recorded: additive effects"}, {"measurement": "IC50", "setting": "[8]; [13]", "result": 13.4, "unit": "µM"}, {"measurement": "IC50", "setting": "[8]; read-out: Absolute IC50 Value, P. falciparum (K1 Strain), PYR-resistant K1, 48 h, monotherapy", "result": 14, "unit": "µM"}, {"measurement": "anti-malarial activity of combined treatment with PYR, 3D7 strain", "setting": "[9]; DFP-RVT 5–15 µM with 25 nM PYR, 48 h", "result": "significant level of enhancement of anti-malarial activity; also recorded: additive effects"}, {"measurement": "IC50", "setting": "[9]; [14]", "result": 16.8, "unit": "µM"}, {"measurement": "pFe(III)", "setting": "[11]", "result": 19.6}, {"measurement": "toxicity to PBMCs", "setting": "healthy human PBMCs; 200 µM, 48 h of incubation", "result": "slightly toxic"}, {"measurement": "toxicity to PBMCs", "setting": "healthy human PBMCs; 25–200 µM, 24 h of incubation", "result": "not found to be toxic"}, {"measurement": "toxicity to PBMCs (words, summary)", "setting": "healthy human PBMCs; concentrations up to 200 µM", "result": "nontoxic to blood mononuclear cells"}]}]}
